Data on eight compounds can be found in article PMC11362383 (ACS applied materials & interfaces, 2024).

Residues, ends and D or L forms follow the SMILES beside them. *: point of attachment. StBu = CC(C)(C)S*

One data set has as its system mice. The conditions noted are these: arginine-rich versus nonarginine peptides; cited from earlier work.
Data set [1] concerns Female Rag2−/− mice. The conditions noted are these: mouse, in vivo, iv.
In data set [2] the test system is Female Rag2−/− mice. The settings on record: mouse, in vivo, iv. This is another data set of the same source.
The test system of data set [3] is Female Rag2−/− mice. Briefly: Assessment of kidney function. The data set is classed as in vivo. The settings on record: one week after injection, still within the reference range.
Data set [4] concerns Female Rag2−/− mice. Kind of data set: In vivo toxicity: animal survival after intravenous injection. The conditions noted are these: i.v.; all of the doses tested (0.0125-0.4 mmol/kg).

Regarding ACSSSPSKHCG [TD], the “survival of mice exposed to the peptide” value in the data set with mice is on record as “mice survived”.
Consider RRRRRRAANCK [R6], for which, in the data set with Female Rag2−/− mice [1], the WBC counts entry is “significant increase”. The “liver enzyme levels (AST, ALT, ALP) in blood plasma” value (from here on “liver enzyme levels (AST, ALT, ALP)”) in the data set on Female Rag2−/− mice [2] is “no significant differences”.
For `CC(=O)N[C@@H](CCCNC(=N)N)C(=O)N[C@@H](CCCNC(=N)N)C(=O)N[C@@H](CCCNC(=N)N)C(=O)N[C@@H](C)C(=O)N[C@@H](C)C(=O)N[C@@H](CC(N)=O)C(=O)N[C@@H](CSSC(C)(C)C)C(=O)N[C@@H](CCCCN)C(=O)O` [R3] (Ac-RRRAANC(StBu)K-OH), in the data set with Female Rag2−/− mice [3] (0.1 mmol/kg i.v.), the “creatinine levels in urine” value is “observable increase” and the “total protein levels in urine” value is “observable increase”. In addition, in the data set on Female Rag2−/− mice [2], the “liver enzyme levels (AST, ALT, ALP)” value is on record as “no significant differences”.
Regarding `CC(=O)N[C@@H](CCCNC(=N)N)C(=O)N[C@@H](CCCNC(=N)N)C(=O)N[C@@H](C)C(=O)N[C@@H](C)C(=O)N[C@@H](CC(N)=O)C(=O)N[C@@H](CSSC(C)(C)C)C(=O)N[C@@H](CCCCN)C(=O)O` [R2] (Ac-RRAANC(StBu)K-OH), the “liver enzyme levels (AST, ALT, ALP)” value with Female Rag2−/− mice [2] is listed as “no significant differences”.
In the case of RRRRAANCK [R4], in the data set with Female Rag2−/− mice [3] (0.5 mmol/kg i.v.), the “creatinine levels in urine” value is reported as “observable increase” and the “total protein levels in urine” value is “observable increase”. In addition, in the data set with Female Rag2−/− mice [1], the WBC counts result is reported as “significant increase” and the platelet counts entry was “significant decrease”. The “AST levels in blood plasma” value in the data set on Female Rag2−/− mice [2] is given as “significant increase”.
Turning to `NCCCC(=O)O` [GABA], the “survival of mice exposed to the peptide” value in the data set on mice is listed as “mice survived”.
For RRRRRAANCK [R5], in the data set with Female Rag2−/− mice [1], the WBC counts entry is given as “significant increase” and the platelet counts result is listed as “significant decrease”. In the data set with Female Rag2−/− mice [2], the “ALP levels in blood plasma” value is given as “increased”, the “ALT levels in blood plasma” value is “increased” and the “AST levels in blood plasma” value was “significant increase”.
RAANCK [R1]: the “observable toxicity in animals” value in the data set with Female Rag2−/− mice [4] is on record as “did not exhibit any observable toxicity”. In addition, the “liver enzyme levels (AST, ALT, ALP)” value in the data set on Female Rag2−/− mice [2] was “no significant differences”.
